IC50 data for 33 molecules are collected here from patent publication US8592629B2, “Sulfonamide derivatives as Nav 1.7 inhibitors” (Pfizer Limited, priority 2010, dated 2013).

The assay deals with T1, Nav1.7 (or SCN9A) channel (Homo sapiens, UniProt Q15858).
T1 construct: expressed in transfected cells
Briefly: Nav1.7 (hSCN9A) block in HEK cells, PatchXpress 7000 automated electrophysiology, estimated IC50 (EIC50). In kind it is cell-based. The settings on record: PatchXpress assay; HEK cells stably transfected with hSCN9A, voltage-clamped at V1/2 of inactivation. The gist of the method: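 Stable hSCN9A HEK cells voltage-clamped at empirically determined inactivation V1/2 (8 s prepulse), current activated by 20 msec step to 0 mV; % inhibition from current before vs after compound. EIC50 derived from single-point data as concentration × (100−%inhibition)/%inhibition, excluding <20% and >80% inhibition; PatchXpress unless stated.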

Counter-ions that a name gives are not always drawn.

T1 sequence (Q15858 whole entry): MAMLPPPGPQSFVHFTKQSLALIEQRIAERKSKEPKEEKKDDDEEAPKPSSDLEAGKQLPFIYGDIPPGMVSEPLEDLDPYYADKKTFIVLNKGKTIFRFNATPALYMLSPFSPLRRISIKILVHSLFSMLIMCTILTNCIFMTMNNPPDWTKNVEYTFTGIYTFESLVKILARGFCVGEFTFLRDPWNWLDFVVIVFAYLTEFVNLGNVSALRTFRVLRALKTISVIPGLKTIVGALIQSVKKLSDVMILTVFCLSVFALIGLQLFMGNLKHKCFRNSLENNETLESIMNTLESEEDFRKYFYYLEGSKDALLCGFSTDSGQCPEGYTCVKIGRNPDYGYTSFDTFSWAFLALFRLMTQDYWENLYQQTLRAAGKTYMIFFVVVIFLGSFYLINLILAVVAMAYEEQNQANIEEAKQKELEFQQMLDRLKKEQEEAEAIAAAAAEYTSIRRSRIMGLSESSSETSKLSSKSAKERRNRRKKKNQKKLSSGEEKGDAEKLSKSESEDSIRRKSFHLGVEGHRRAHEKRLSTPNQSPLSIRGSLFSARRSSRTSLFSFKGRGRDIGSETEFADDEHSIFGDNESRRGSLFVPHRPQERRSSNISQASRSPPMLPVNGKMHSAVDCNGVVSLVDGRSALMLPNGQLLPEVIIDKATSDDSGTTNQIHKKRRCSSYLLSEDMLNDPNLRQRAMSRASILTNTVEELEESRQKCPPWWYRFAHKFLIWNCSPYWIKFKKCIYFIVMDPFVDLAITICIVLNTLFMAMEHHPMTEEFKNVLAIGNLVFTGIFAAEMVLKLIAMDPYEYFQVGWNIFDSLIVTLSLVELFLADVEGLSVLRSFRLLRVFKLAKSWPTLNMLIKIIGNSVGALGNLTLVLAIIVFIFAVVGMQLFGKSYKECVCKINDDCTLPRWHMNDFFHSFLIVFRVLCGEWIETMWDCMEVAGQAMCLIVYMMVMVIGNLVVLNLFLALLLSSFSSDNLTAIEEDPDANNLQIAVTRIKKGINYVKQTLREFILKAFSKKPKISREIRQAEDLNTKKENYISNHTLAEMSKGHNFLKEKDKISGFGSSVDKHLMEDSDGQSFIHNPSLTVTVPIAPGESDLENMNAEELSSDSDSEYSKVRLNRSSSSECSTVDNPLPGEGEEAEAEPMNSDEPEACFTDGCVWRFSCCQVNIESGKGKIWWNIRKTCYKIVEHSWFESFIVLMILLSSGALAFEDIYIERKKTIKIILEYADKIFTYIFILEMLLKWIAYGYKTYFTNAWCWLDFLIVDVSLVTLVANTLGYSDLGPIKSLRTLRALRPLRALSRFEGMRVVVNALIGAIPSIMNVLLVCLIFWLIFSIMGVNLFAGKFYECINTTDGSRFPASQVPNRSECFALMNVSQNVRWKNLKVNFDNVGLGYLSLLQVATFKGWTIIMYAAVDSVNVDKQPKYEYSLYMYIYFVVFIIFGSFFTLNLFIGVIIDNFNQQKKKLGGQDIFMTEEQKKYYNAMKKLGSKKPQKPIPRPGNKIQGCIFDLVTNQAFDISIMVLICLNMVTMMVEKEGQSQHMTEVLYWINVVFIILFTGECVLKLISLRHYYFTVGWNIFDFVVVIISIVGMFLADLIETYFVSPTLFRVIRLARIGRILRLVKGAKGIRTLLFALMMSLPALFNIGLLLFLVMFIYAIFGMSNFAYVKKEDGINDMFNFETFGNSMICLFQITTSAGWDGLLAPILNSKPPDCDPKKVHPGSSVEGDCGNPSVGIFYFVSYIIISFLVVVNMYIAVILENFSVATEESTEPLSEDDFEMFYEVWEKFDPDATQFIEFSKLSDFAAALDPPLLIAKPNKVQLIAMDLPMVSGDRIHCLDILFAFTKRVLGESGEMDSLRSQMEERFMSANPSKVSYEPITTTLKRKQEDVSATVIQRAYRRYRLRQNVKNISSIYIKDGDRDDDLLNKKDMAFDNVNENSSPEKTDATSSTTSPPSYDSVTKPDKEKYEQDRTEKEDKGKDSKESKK

As a reminder, the IC50 is the concentration that gives 50% inhibition. On to `C[C@H](Oc1ncc(Oc2cc(F)c(C(=O)NS(C)(=O)=O)cc2Cl)cc1Cl)C(F)(F)F` [Example 98, 5-chloro-4-({5-chloro-6-[(1S)-2,2,2-trifluoro-1-methylethoxy]pyridin-3-yl}oxy)-2-fluoro-N-(methylsulfonyl)benzamide], for which the IC50 was 12 nM.
The figure for `C[C@@H](Oc1ncc(Oc2cc(F)c(C(=O)NS(C)(=O)=O)cc2Cl)cc1Cl)C(F)(F)F` [Example 99, 5-chloro-4-({5-chloro-6-[(1R)-2,2,2-trifluoro-1-methylethoxy]pyridin-3-yl}oxy)-2-fluoro-N-(methylsulfonyl)benzamide] is 15 nM; for `CS(=O)(=O)NC(=O)c1cc(Cl)c(Oc2cnc(Oc3ccccc3)c(Cl)c2)cc1F` [Example 100, 5-chloro-4-[(5-chloro-6-phenoxypyridin-3-yl)oxy]-2-fluoro-N-(methylsulfonyl)benzamide] it is 72 nM; for `CC(C)(C)Oc1ncc(Oc2cc(F)c(C(=O)NS(C)(=O)=O)cc2Cl)cc1Cl` [Example 101, 4-[(6-tert-butoxy-5-chloropyridin-3-yl)oxy]-5-chloro-2-fluoro-N-(methylsulfonyl)benzamide] it is 34 nM.
On to `CS(=O)(=O)NC(=O)c1ccc(Nc2cnc(OC(C(F)(F)F)C(F)(F)F)c(Cl)c2)cc1` [Example 103, 4-(5-chloro-6-(1,1,1,3,3,3-hexafluoropropan-2-yloxy)Pyridin-3-ylamino)-N-(methylsulfonyl)benzamide], for which the IC50 is 400 nM.
The same measure for `CC(F)(F)Oc1cc(Oc2cc(F)c(C(=O)NS(C)(=O)=O)cc2Cl)cnc1C1CC1` [Example 104, 5-chloro-4-(6-cyclopropyl-5-(1,1-difluoroethoxy)pyridin-3-yloxy)-2-fluoro-N-(methylsulfonyl)benzamide hydrochloride salt]: 67 nM.
For `CS(=O)(=O)NC(=O)c1cc(Cl)c(Oc2cnc(OCC(F)(F)C(F)F)c(C(F)(F)F)c2)cc1F` [Example 105, 5-Chloro-2-fluoro-N-(methylsulfonyl)-4-(6-(2,2,3,3-tetrafluoropropoxy)-5-(trifluoromethyl)pyridin-3-yloxy)benzamide], the IC50 was 31 nM.
As for `CS(=O)(=O)NC(=O)c1cc(Cl)c(Oc2cnc(C3CC3)c(OC(F)F)c2)cc1F` [Example 106, 5-chloro-4-(6-cyclopropyl-5-(difluoromethoxy)pyridin-3-yloxy)-2-fluoro-N-(methylsulfonyl)benzamide], the IC50 is 1100 nM.
For the molecule `CS(=O)(=O)NC(=O)c1cc(Cl)c(Oc2cnc(C3CC3)c(C(F)(F)F)c2)cc1F` [Example 107, 5-chloro-4-(6-cyclopropyl-5-(trifluoromethyl)pyridin-3-yloxy)-2-fluoro-N-(methylsulfonyl)benzamide], the IC50 is 49 nM.
Turning to `CS(=O)(=O)NC(=O)c1cc(Cl)c(Oc2cnc(-c3ccccc3)c(Cl)c2)cc1F` [Example 108, 5-chloro-4-[(5-chloro-6-phenylpyridin-3-yl)oxy]-2-fluoro-N-(methylsulfonyl)benzamide], the IC50 was 240 nM.
On to `CS(=O)(=O)NC(=O)c1cc(Cl)c(Oc2cnc(C3CC(F)(F)C3)c(Cl)c2)cc1F` [Example 109, 5-chloro-4-{[5-chloro-6-(3,3-difluorocyclobutyl)pyridin-3-yl]oxy}-2-fluoro-N-(methylsulfonyl)benzamide], for which the IC50 is 97 nM.
The figure for `CS(=O)(=O)NC(=O)c1cc(Cl)c(Oc2cnc(C3CC3)c(OC(F)(F)F)c2)cc1F` [Example 110, 5-chloro-4-(6-cyclopropyl-5-(trifluoromethoxy)pyridin-3-yloxy)-2-fluoro-N-(methylsulfonyl)benzamide] is 100 nM; for `CC(C)c1ncc(Oc2cc(F)c(C(=O)NS(C)(=O)=O)cc2Cl)cc1Cl` [Example 111, 5-Chloro-4-(5-chloro-6-isopropylpyridin-3-yloxy)-2-fluoro-N-(methylsulfonyl)benzamide] it is 290 nM.
`CS(=O)(=O)NC(=O)c1cc(Cl)c(Oc2cnc(C3CCC3)c(Cl)c2)cc1F` [Example 112, 5-chloro-4-(5-chloro-6-cyclobutylpyridin-3-yloxy)-2-fluoro-N-(methylsulfonyl)benzamide]: the IC50 is 19 nM.
With `CS(=O)(=O)NC(=O)c1cc(Cl)c(Oc2cnc(C3CC3)c(C3CC3)c2)cc1F` [Example 113, 5-chloro-4-[(5,6-dicyclopropylpyridin-3-yl)oxy]-2-fluoro-N-(methylsulfonyl)benzamide], the IC50 is 53 nM.
Turning to `CC(C)N(C)c1ncc(Oc2cc(F)c(C(=O)NS(C)(=O)=O)cc2F)cc1Cl` [Example 114, 4-({5-chloro-6-[isopropyl(methyl)amino]pyridin-3-yl}oxy)-2,5-difluoro-N-(methylsulfonyl)benzamide], the IC50 was 210 nM.
Take `CS(=O)(=O)NC(=O)c1cc(F)c(Oc2cnc(NCC3CCC3)c(Cl)c2)cc1F` [Example 115, 4-({5-chloro-6-[(cyclobutylmethyl)amino]pyridin-3-yl}oxy)-2,5-difluoro-N-(methylsulfonyl)benzamide]: the IC50 was 54 nM.
On to `CN(c1ncc(Oc2cc(F)c(C(=O)NS(C)(=O)=O)cc2F)cc1Cl)C1CC1` [Example 116, 4-({5-chloro-6-[cyclopropyl(methyl)amino]pyridin-3-yl}oxy)-2,5-difluoro-N-(methylsulfonyl)benzamide], for which the IC50 is 980 nM.
As to `CCN(C)c1ncc(Oc2cc(F)c(C(=O)NS(C)(=O)=O)cc2F)cc1Cl` [Example 117, 4-({5-chloro-6-[ethyl(methyl)amino]pyridin-3-yl}oxy)-2,5-difluoro-N-(methylsulfonyl)benzamide], the IC50 is 900 nM.
The figure for `CCN1CCN(c2ncc(Oc3cc(F)c(C(=O)NS(C)(=O)=O)cc3F)cc2Cl)CC1` [Example 118, 4-{[5-chloro-6-(4-ethylpiperazin-1-yl)pyridin-3-yl]oxy}-2,5-difluoro-N-(methylsulfonyl)benzamide] is greater than 1000 nM; for `CS(=O)(=O)NC(=O)c1cc(F)c(Oc2cnc(N3C[C@@H](F)[C@H](F)C3)c(Cl)c2)cc1F` [Example 119, 4-({5-chloro-6-[(3R,4R)-3,4-difluoropyrrolidin-1-yl]pyridin-3-yl}oxy)-2,5-difluoro-N-(methylsulfonyl)benzamide] it is 400 nM.
As to `CS(=O)(=O)NC(=O)c1cc(F)c(Oc2cnc(N[C@H]3CC[C@H](F)C3)c(Cl)c2)cc1F` [Example 120, 4-[(5-chloro-6-{[(1S,3S)-3-fluorocyclopentyl]amino}pyridin-3-yl)oxy]-2,5-difluoro-N-(methylsulfonyl)benzamide], the IC50 is 660 nM.
Regarding `COCC1CCCN1c1ncc(Oc2cc(F)c(C(=O)NS(C)(=O)=O)cc2F)cc1Cl` (stereo not drawn) [Example 121, 4-({5-chloro-6-[2-(methoxymethyl)pyrrolidin-1-yl]pyridin-3-yl}oxy)-2,5-difluoro-N-(methylsulfonyl)benzamide], the IC50 is 680 nM.
For `COC(C)(C)CNc1ncc(Oc2cc(F)c(C(=O)NS(C)(=O)=O)cc2F)cc1Cl` [Example 122, 4-({5-chloro-6-[(2-methoxy-2-methylpropyl)amino]pyridin-3-yl}oxy)-2,5-difluoro-N-(methylsulfonyl)benzamide], the IC50 is 250 nM.
For the molecule `CS(=O)(=O)NC(=O)c1cc(F)c(Oc2cnc(N3CCC(F)(F)C3)c(Cl)c2)cc1F` [Example 123, 4-{[5-chloro-6-(3,3-difluoropyrrolidin-1-yl)pyridin-3-yl]oxy}-2,5-difluoro-N-(methylsulfonyl)benzamide], the IC50 is 120 nM.
Regarding `CS(=O)(=O)NC(=O)c1cc(F)c(Oc2cnc(N3CCC(F)C3)c(Cl)c2)cc1F` (stereo not drawn) [Example 124, 4-{[5-chloro-6-(3-fluoropyrrolidin-1-yl)pyridin-3-yl]oxy}-2,5-difluoro-N-(methylsulfonyl)benzamide], the IC50 was 640 nM.
The same measure for `COC1(C)CN(c2ncc(Oc3cc(F)c(C(=O)NS(C)(=O)=O)cc3F)cc2Cl)C1` [Example 125, 4-{[5-chloro-6-(3-methoxy-3-methylazetidin-1-yl)pyridin-3-yl]oxy}-2,5-difluoro-N-(methylsulfonyl)benzamide]: 960 nM.
Take `CC1CCN(c2ncc(Oc3cc(F)c(C(=O)NS(C)(=O)=O)cc3F)cc2Cl)CC1` [Example 126, 4-{[5-chloro-6-(4-methylpiperidin-1-yl)pyridin-3-yl]oxy}-2,5-difluoro-N-(methylsulfonyl)benzamide]: the IC50 is 470 nM.
As to `CN1CCCC(Nc2ncc(Oc3cc(F)c(C(=O)NS(C)(=O)=O)cc3F)cc2Cl)C1` (stereo not drawn) [Example 127, 4-({5-chloro-6-[(1-methylpiperidin-3-yl)amino]pyridin-3-yl}oxy)-2,5-difluoro-N-(methylsulfonyl)benzamide], the IC50 is greater than 1000 nM.
Turning to `CO[C@@H]1CCCN(c2ncc(Oc3cc(F)c(C(=O)NS(C)(=O)=O)cc3F)cc2Cl)C1` [Example 128, 4-({5-chloro-6-[(3R)-3-methoxypiperidin-1-yl]pyridin-3-yl}oxy)-2,5-difluoro-N-(methylsulfonyl)benzamide], the IC50 is 2400 nM.
As for `CCC(COC)Nc1ncc(Oc2cc(F)c(C(=O)NS(C)(=O)=O)cc2F)cc1Cl` (stereo not drawn) [Example 129, 4-[(5-chloro-6-{[1-(methoxymethyl)propyl]amino}pyridin-3-yl)oxy]-2,5-difluoro-N-(methylsulfonyl)benzamide], the IC50 was 540 nM.
The figure for `CS(=O)(=O)NC(=O)c1cc(F)c(Oc2cnc(N3CC(F)(F)C3)c(Cl)c2)cc1F` [Example 130, 4-{[5-chloro-6-(3,3-difluoroazetidin-1-yl)pyridin-3-yl]oxy}-2,5-difluoro-N-(methylsulfonyl)benzamide] is 740 nM; for `CS(=O)(=O)NC(=O)c1cc(F)c(Oc2cnc(N3C[C@H]4CC[C@@H]3C4)c(Cl)c2)cc1F` [Example 131, 4-({6-[(1R,4S)-2-azabicyclo[2.2.1]hept-2-yl]-5-chloropyridin-3-yl}oxy)-2,5-difluoro-N-(methylsulfonyl)benzamide] it is 71 nM.
